In US11667602B2, “Compounds and their use” (AstraZeneca AB, priority 2020, dated 2023):
≈ marks a conversion by molar mass, not a printed value.

Tests used:
[1] = Human Plasma Protein Binding (Test B); assay type: in vitro ADME; conditions: fraction unbound (fu)
Description: Human Plasma Protein Binding (Test B)
The assay was conducted according to the Human Plasma Protein Binding Assay described in pages 167-170 of Wernevik, J. et al., “A Fully Integrated Assay Panel for Early Drug Metabolism and Pharmacokinetics Profiling”, Assay and Drug Development Technologies, 2020, 18(4), 157-179. Data are reported in Table 36 as fraction unbound (fu) (% free). Where the assay was run multiple times for the same compound, the arithmetic mean is reported.

[2] = Human Liver Microsomal Stability (Test C); assay type: in vitro ADME; conditions: human, liver microsomes
Description: Human Liver Microsomal Stability (Test C)
The assay was conducted according to the Human Liver Microsome Stability Assay described in pages 170-174 of Wernevik, J. et al., “A Fully Integrated Assay Panel for Early Drug Metabolism and Pharmacokinetics Profiling”, Assay and Drug Development Technologies, 2020, 18(4), 157-179. Data are reported in Table 36 as CLint (μl/min/mg protein). Where the assay was run multiple times for the same compound, the arithmetic mean is reported.

[3] = Rat Hepatocyte Stability (Test E); assay type: in vitro ADME; conditions: rat, hepatocytes, geometric mean if run multiple times
Description: Rat Hepatocyte Stability (Test E)
The assay was conducted according to the Rat Hepatocyte Stability Assay described in pages 170-174 of Wernevik, J. et al., “A Fully Integrated Assay Panel for Early Drug Metabolism and Pharmacokinetics Profiling”, Assay and Drug Development Technologies, 2020, 18(4), 157-179. Data are reported in Table 36 as mean Clint(μl/min/10^6 cells). Where the assay was run multiple times for the same compound, the geometric mean is reported.

Solubility (Test F) = assay type: physicochemical; conditions: arithmetic mean if run multiple times
Description: The assay was conducted according to the Solubility Assay described in pages 164-167 of Wernevik, J. et al., “A Fully Integrated Assay Panel for Early Drug Metabolism and Pharmacokinetics Profiling”, Assay and Drug Development Technologies, 2020, 18(4), 157-179. Data are reported in Table 36 as solubility ([…]. Where the assay was run multiple times for the same compound, the arithmetic mean is reported.

human RXFP1 = target: T1, human RXFP1 (Homo sapiens, UniProt Q9HBX9); test: RXFP1 Hu cAMP (Test A); assay type: cell-based; parameters: expressed in transfected cells; host or cells: Jump-In T-REx CHO-K1 cells (ThermoFisher), induced with 10 ng/ml doxycycline for 24 h; conditions: RXFP1 Hu cAMP; for EC50: read-out: Test A EC50
T1 sequence (Q9HBX9 1-757): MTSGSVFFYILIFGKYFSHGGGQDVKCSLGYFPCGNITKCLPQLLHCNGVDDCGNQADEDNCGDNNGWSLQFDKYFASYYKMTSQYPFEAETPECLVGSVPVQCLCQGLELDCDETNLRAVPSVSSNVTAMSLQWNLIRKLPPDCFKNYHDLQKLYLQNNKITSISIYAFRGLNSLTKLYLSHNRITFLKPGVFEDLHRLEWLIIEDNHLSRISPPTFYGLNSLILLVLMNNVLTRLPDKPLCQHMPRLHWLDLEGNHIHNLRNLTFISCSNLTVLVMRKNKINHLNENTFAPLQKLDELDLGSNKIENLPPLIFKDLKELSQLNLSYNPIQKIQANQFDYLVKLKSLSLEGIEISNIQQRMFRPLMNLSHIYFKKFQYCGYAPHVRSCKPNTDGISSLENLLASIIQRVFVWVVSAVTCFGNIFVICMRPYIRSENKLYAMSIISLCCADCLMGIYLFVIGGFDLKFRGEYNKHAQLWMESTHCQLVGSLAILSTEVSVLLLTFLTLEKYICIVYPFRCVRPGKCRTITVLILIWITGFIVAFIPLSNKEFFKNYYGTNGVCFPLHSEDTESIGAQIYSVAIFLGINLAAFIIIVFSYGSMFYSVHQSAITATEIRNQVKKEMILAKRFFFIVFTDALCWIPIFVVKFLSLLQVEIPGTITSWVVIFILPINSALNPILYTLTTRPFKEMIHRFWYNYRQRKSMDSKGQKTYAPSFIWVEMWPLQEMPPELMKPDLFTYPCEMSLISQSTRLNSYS
How it was run: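 Cells: CHO-K1 stably carrying human RXFP1, expressed after 24 h 10 ng/ml doxycycline; 0.5 mM IBMX final, HTRF detection after 2 h at room temperature.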

SMILES	Test B Human Plasma Protein Binding (% free) [1] [% free]	microsomal CLint [2] [µL/min/mg]	hepatocyte CLint [3] [µL/min/1e6 cells]	solubility (Solubility (Test F)) [µM]	Test A Sinf (human RXFP1) [%]	EC50 (human RXFP1) [nM]
COc1cc(F)c(O[C@H]2CC[C@@H](C(=O)O)CC2)cc1C(=O)N[C@@H]1[C@H]2CC[C@H](C2)[C@@H]1C(=O)Nc1ccc(Br)c(C(F)(F)F)c1 [Example 23]	0.24	26	19	8.7 (≈ 5.84 µg/mL)	109	20
COc1cc(F)c(O[C@H]2CC[C@@H](C(=O)O)CC2)cc1C(=O)N[C@@H]1[C@H]2CC[C@H](C2)[C@@H]1C(=O)Nc1cc(C(F)(F)F)cc(C(F)(F)F)c1 [Example 22, (1S,4s)-4-(5-(((1S,2R,3S,4R)-3-((3,5-Bis(trifluoromethyl)phenyl)carbamoyl)bicyclo[2.2.1]heptan-2-yl)carbamoyl)-2-fluoro-4-methoxyphenoxy)cyclohexane-1-carboxylic acid]	0.23	23	14	51 (≈ 33.7 µg/mL)	130	
COc1cc(C#N)c(O[C@H]2CC[C@@](C)(C(=O)O)CC2)cc1C(=O)N[C@@H]1[C@H]2CC[C@H](C2)[C@@H]1C(=O)NCC(C)(C)O [Example 76]	47	< 3	12	790 (≈ 428 µg/mL)	100	41000
COc1cc(F)c(O[C@H]2CC[C@@H](C(=O)O)CC2)cc1C(=O)N[C@@H]1[C@H]2CC[C@H](C2)[C@@H]1C(=O)Nc1ccc(S(F)(F)(F)(F)F)cc1 [Example 183]	0.50	23	13	50 (≈ 32.5 µg/mL)	99	420
COc1cc(F)c(O[C@H]2CC[C@@H](C(=O)O)CC2)cc1C(=O)N[C@@H]1[C@H]2CC[C@H](C2)[C@@H]1C(=O)NC12CC(C1)C2 [Example 178]	17	8.6	39	> 1000	95	> 2700
COc1cc(C#N)c(O[C@H]2CC[C@@](C)(C(=O)O)CC2)cc1C(=O)N[C@@H]1[C@H]2CC[C@H](C2)[C@@H]1C(=O)NC1(C)CC1 [Example 100]	30	< 3	9.6	920 (≈ 482 µg/mL)	100	> 4600
COc1cc(F)c(O[C@H]2CC[C@@H](C(=O)O)CC2)cc1C(=O)N[C@@H]1[C@H]2CC[C@H](C2)[C@@H]1C(=O)Nc1cccc(Cl)c1 [Example 25]	0.59	31	130	440 (≈ 246 µg/mL)	102	420
COc1cc(F)c(O[C@H]2CC[C@@H](C(=O)O)CC2)cc1C(=O)N[C@@H]1[C@H]2CC[C@H](C2)[C@@H]1C(=O)Nc1cccc(C(C)C)c1 [Example 196, (1S,4s)-4-(2-Fluoro-5-(((1S,2R,3S,4R)-3-((3-isopropylphenyl)carbamoyl)bicyclo[2.2.1]heptan-2-yl)carbamoyl)-4-methoxyphenoxy)cyclohexane-1-carboxylic acid]	1.7	40	79	290 (≈ 164 µg/mL)	103	220
COc1cc(C#N)c(O[C@H]2CC[C@@](C)(C(=O)O)CC2)cc1C(=O)N[C@@H]1[C@H]2CC[C@H](C2)[C@@H]1C(=O)NC1(C#N)CC1 [Example 72]	40	< 3	14	950 (≈ 508 µg/mL)	75	> 3100
COc1cc(F)c(O[C@H]2CC[C@@H](C(=O)O)CC2)cc1C(=O)N[C@@H]1[C@H]2CC[C@H](C2)[C@@H]1C(=O)Nc1ccc(C)c(C#N)c1 [Example 19]	2.3	17	93	630 (≈ 355 µg/mL)	97	470
COc1cc(C#N)c(O[C@H]2CC[C@@](C)(C(=O)O)CC2)cc1C(=O)N[C@@H]1[C@H]2CC[C@H](C2)[C@@H]1C(=O)NCC1(CC(C)C)CCC1 [Example 106]	1.7	> 300	29	170 (≈ 101 µg/mL)	112	9.7
COc1cc(Br)c(O[C@H]2CC[C@@H](C(=O)O)CC2)cc1C(=O)N[C@@H]1[C@H]2CC[C@H](C2)[C@@H]1C(=O)Nc1cccc(S(=O)(=O)C(F)(F)F)c1 [Example 464, (1S,4s)-4-(2-Bromo-4-methoxy-5-(((1S,2R,3S,4R)-3-((3-((trifluoromethyl)sulfonyl)phenyl)carbamoyl)bicyclo[2.2.1]heptan-2-yl)carbamoyl)phenoxy)cyclohexane-1-carboxylic acid]	0.54	57	30	200 (≈ 144 µg/mL)	104	64
COc1cc(F)c(O[C@H]2CC[C@@H](C(=O)O)CC2)cc1C(=O)N[C@@H]1[C@H]2CC[C@H](C2)[C@@H]1C(=O)Nc1cccc(C(C)(C)C)c1 [Example 189]	1.5	34	23	83 (≈ 48.2 µg/mL)	101	130
COc1cc(F)c(O[C@H]2CC[C@@H](C(=O)O)CC2)cc1C(=O)N[C@@H]1[C@H]2CC[C@H](C2)[C@@H]1C(=O)Nc1c(F)c(F)c(F)c(F)c1F [Example 16, (1S,4s)-4-(2-Fluoro-4-methoxy-5-(((1S,2R,3S,4R)-3-((perfluorophenyl)carbamoyl)bicyclo[2.2.1]heptan-2-yl)carbamoyl)phenoxy)cyclohexane-1-carboxylic acid]	2.2	9.3	49	330 (≈ 203 µg/mL)	93	330
